The source of these data is patent US12697326B2, “Methods of treating hepatic encephalopathy” (SALIX PHARMACEUTICALS, INC., priority 2008, dated 2026).

Data set [1] relates to Conn score in subjects with HE. The data set is described as follows: Level of change from baseline in Conn score by treatment group, first study. In kind it is in vivo, human. The note with it: 550 mg BID, Baseline to EOT. The text has this:
The scale used in the Conn scoring system is provided below. • Grade 0=No personality or behavioral abnormality detected • Grade 1=Trivial lack of awareness, euphoria or anxiety; shortened attention span; impairment of addition or subtraction • Grade 2=Lethargy; disorientation for time; obvious personality change; inappropriate behavior • Grade 3=Somnolence to semi-stupor, responsive to stimuli; confused; gross disorientation; bizarre behavior • Grade 4=Coma; unable to test mental state
Change in mental status was measured by the Conn score (also known as the West Haven score). The Conn score has been widely used as a measure of mental state in HE studies and is based on the criteria of Parsons-Smith as modified by Conn. The scale used in the Conn scoring system is described above.

In data set [2] the test system is HE-caused hospitalization in subjects with HE. As to the kind of experiment: HE-caused hospitalization, first study. In kind it is in vivo, human. The text has this:
FIG. 5 illustrates time to first HE-caused hospitalizations by treatment group in the first study. […] Note for FIG. 10, the survival distribution estimate on y-axis represents the proportion of subjects without HE-caused hospitalizations. Dashed line represents rifaximin group and solid line represents placebo group. Open circles and open triangles represent censored subjects. Subjects who discontinued prior to hospitalization were censored at the time of discontinuation.

The test system of data set [3] is Conn score and asterixis grade in subjects with HE. The data set is described as follows: Changes from baseline in Conn scores and asterixis grades, second study. In kind it is in vivo, human. The text has this: Normalizing for subject exposure, this represents a hospitalization rate of 0.60 event/PEY. A total of 59 were hospitalized due HE episodes (e.g., HE-caused). Normalizing for subject exposure, this represents an HE-caused hospitalization rate of 0.29 event/PEY. […] All subjects were capable of worsening over time, and 24/266 subjects (9.0%) did so by 1 or 2 grades.
The last visit for the second study is the last visit recorded for the interim analysis.

The nature of the next data set: in vitro. As to conditions: human, in vivo.

Take `CO[C@H]1/C=C/O[C@@]2(C)Oc3c(C)c(O)c4c(O)c(c5c(nc6cc(C)ccn65)c4c3C2=O)NC(=O)/C(C)=C\C=C\[C@H](C)[C@H](O)[C@@H](C)[C@@H](O)[C@@H](C)[C@H](OC(C)=O)[C@@H]1C` [Rifaximin]: in data set [1], the “Change from baseline in Conn score, Max” value worked out at 2; the “Change from baseline in Conn score, Mean” value was −0.1; the “Change from baseline in Conn score, Median” value was 0.0; the “Change from baseline in Conn score, Min” value is listed as −1. Besides, in data set [1] (n = 139), the “Number of subjects with change from baseline in Conn score of 0” value came out at 101, the “Number of subjects with change from baseline in Conn score of 1” value is on record as 10, the “Number of subjects with change from baseline in Conn score of 2” value was 2 and the “Number of subjects with change from baseline in Conn score of 3” value is reported as 0. Also, in data set [1] (n = 139), the “Number of subjects with change from baseline in Conn score of −1” value is 26, the “Percent of subjects with change from baseline in Conn score of 0” value is 72.7%, the “Percent of subjects with change from baseline in Conn score of 1” value came out at 7.2% and the “Percent of subjects with change from baseline in Conn score of 2” value is listed as 1.4%. The “reduction in risk of HE-caused hospitalization compared with placebo” value in data set [2] (6-month treatment period) is on record as 56%. Also, in data set [2] (rifaximin group), the HE-caused hospitalization rate is recorded as 0.30 events/PEY and the “subjects with HE-caused hospitalizations (of 140)” value is on record as 15. In addition, the “subjects with worsening of Conn score by 1 or 2 grades” value in data set [3] (24/266 subjects) is on record as 9.0%. The “incidence of worsening asterixis grades” value in data set [3] (continuing rifaximin group, 6/70 subjects) amounted to 8.6%. Besides, the “subjects with 2-grade improvement in asterixis among those entering with scores of 1, 2 or 3” value in data set [3] (last visit, 4 subjects of 67) is listed as 6.0%. In data set [3] (last visit, 5 subjects of 67), the “subjects with 3-grade improvement in asterixis among those entering with scores of 1, 2 or 3” value is listed as 7.5%. Moreover, the “subjects with 2-grade improvement in Conn score among those entering with Conn 1, 2, or 3” value in data set [3] (last visit, 7 subjects of 84) was 8.3%. Moreover, the “subjects with 1-grade improvement in Conn score among those entering with Conn 1, 2, or 3” value in data set [3] (last visit, 47 subjects of 84) is listed as 56.0%. The “incidence of worsening asterixis grades” value in data set [3] (new rifaximin group, 12/196 subjects) was 6.1%. The unbound share (fraction unbound) in “in vitro” turned out to be 0.447.
